Reference: paper PMC11173687, “Chemical Profile and Healthy Properties of Sicilian Diplotaxis harra subsp. crassifolia (Raf.) Maire” (Molecules, 2024)

How the values were obtained:
[1] = ABTS radical scavenging test; details: 6 min, room temperature
Method: (§1) The β-carotene bleaching test was performed to investigate the ability of the extract to protect from lipid peroxidation. All test protocols were previously reported. Briefly, in the DPPH test, a solution of DPPH was mixed with extract at different concentrations (10-1000 μg/mL). After that, the mixture was incubated at room temperature for 30 min. The absorbance was read at 517 nm. In the ABTS test, a solution of ABTS radical cation was prepared and, after 12 h, was diluted with ethanol to reach an absorbance of 0.70 at 734 nm. The stabilized ABTS^+ solution was added to extracts at different concentrations (1-400 μg/mL), and the mixture was left to react at room temperature for 6 min. After that, the absorbance was read at 734 nm. Ascorbic acid was employed as a positive control in both the ABTS and DPPH assays. In the FRAP test, a mixture of tripyridyltriazine (TPTZ) solution, FeCl3, and acetate buffer was added to the sample at a concentration of 2.5 mg/mL. After 30 min of incubation at room temperature, the absorbance was measured at 595 nm. Butylated hydroxytoluene (BHT) was used as a positive control. The protection from lipid peroxidation was studied by using the β-carotene bleaching test. […] The mixture was left to react for 30 and 60 min at 45 °C, and the absorbance was read at 470 nm. Propyl gallate was used as a positive control.

[2] = DPPH radical scavenging test; details: 30 min, room temperature
Method: as §1

[3] = Ferric Reducing Ability Power (FRAP) test; details: at 2.5 mg/mL
Method: as §1

[4] = β-carotene bleaching test (protection from lipid peroxidation)
Method: as §1

For O=C1O[C@H]([C@@H](O)CO)C(O)=C1O [Ascorbic acid, ascorbic acid], which “ABTS Test IC50” value [1] is on record?
The value was 1.7 ± 0.06 µg/mL.

What about the “DPPH Test IC50” value [2] of the same molecule?
Its value is 5.0 ± 0.8 µg/mL.

Which “FRAP Test” value [3] does the source give for Cc1cc(C(C)(C)C)c(O)c(C(C)(C)C)c1 [BHT, butylated hydroxytoluene] here?
The value was 63.27 ± 4.35 μM Fe(II)/g.

Which “β-Carotene Bleaching Test IC50” value ([4]; 30 min) does the source give for CCCOC(=O)c1cc(O)c(O)c(O)c1 [Propyl gallate, propyl gallate] here?
Its value is 1.04 ± 0.04 µg/mL.

And the “β-Carotene Bleaching Test IC50” value ([4]; 60 min)?
Its value is 0.09 ± 0.00 µg/mL.
